The record followed here is patent US7645735B2, “Anti-angiogenic peptides for treating or preventing endometriosis” (Children's Medical Center Corporation, priority 2003, dated 2010).

The subject of one data set is female C57BL/6 mice. In words: Estrus cycling by daily vaginal smears. Conditions: larger experiment, 2.5 mg/kg. The class given is in vivo, mouse. From the text: To investigate the effect of the angiogenesis inhibitors used above on estrus cycling, mice from the first two studies underwent daily vaginal smears in the middle of the endometriosis experiment. The stage of the estrus cycle was classified by evaluating the cells present at the cytological staining. Briefly, this was done as follows. In order to synchronize estrus cycling prior to surgery, mice were housed in groups of 5 for a week. After endometriosis surgery, with the intention to prevent the suspension of cycling, all mice were housed in individual cages. In the absence of a male, female mice housed in groups may become anestrus. Starting post surgical week two, estrus cycling was evaluated by cytological analysis of daily vaginal smears over one week's period. Exams were performed each day during the early morning hours. Autoclaved, wetted, blunt toothpicks were used to gently scrape the superficial cell layer of the animal's vagina. Cells were transferred to a drop of Evan's blue in 0.9% saline on a glass slide for staining, sealed under a glass cover slip and examined under a microscope (Carl Zeiss, Thornwood, N.Y.). Subsequently, each slide was analyzed under low magnification (×40 to ×100) by two independent investigators, who were masked for the form of treatment and previous data from every mouse.

For data set [1], the system named is human pancreatic tumor cells BxPC-3. The data set is described as follows: BxPC-3 human pancreatic tumor model in SCID mice. It is filed as in vivo. Conditions: human endostatin peptides s.c. twice a day at 7 mg/kg/d, final measurement at 28 days, n=3. The method, then: These peptides were initially tested for anti-tumor activity employing the human pancreatic tumor cells BxPC-3 cells, which were implanted in the s.c. dorsa of SCID mice. For systemic treatment, human endostatin peptides, P1-P8, were administered subcutaneously (s.c.) twice a day at 7 mg/kg/d due to the high clearance rate from the mouse circulation. Full-length Fc-Endostatin, hFcES was administered subcutaneously only once per day at a dose of 20 mg/kg/d. PBS was used as a control.
(§1) BxPC-3 and LLC cells were grown in cell culture as described above. […] Mice were shaved and the dorsal skin was cleaned with ethanol before tumor cell injection. A suspension of 5×10^6 tumor cells in 0.1 ml RPMI-1640 (for BxPC-3) or DMEM (for LLC) was injected subcutaneously (s.c.) into the dorsa of mice at the proximal midline. BxPC-3 cells were implanted in SCID mice and LLC in C57B1/6J mice.
(§2) The mice were weighed and tumors were measured every 3-5 days in two diameters with a dial-caliper. Volumes were determined using the formula a2×b×0.52 (where a is the shortest and b is the longest diameter). Data is represented as volume of treated tumor over control (T/C). At the completion of each experiment, the mice were euthanized with CO2 asphyxiation. Tumors were fixed in 10% buffered Formalin (Fisher Scientific, Fair Lawn, N.J.) and paraffin-embedded.
(§3) For treatment of tumor-bearing mice, tumor volumes were allowed to grow to approximately 100 mm^3, and mice were randomized. Treatment was performed by single bolus s.c. injections. Peptides were administered twice a day (every 12 hrs). Doses indicated for peptides were corrected for the purity of peptides (approximately 70%). For example, mice injected with 4 mg/kg/d peptide, were actually injected with 2.8 mg/kg/d after correction. The unpaired Student t-test was used for statistical analysis.

For another data set, the system named is LLC. In words: Lewis lung carcinoma (LLC) tumor model in C57Bl/6J mice. It is filed as in vivo, mouse. Conditions: for inhibited LLC (tumor inhibition): peptides s.c. twice a day at 2.8 mg/kg/d, C57B1/6J mice; for tumor volume: LLC, s.c. twice a day 2.8 mg/kg/day, n=5 (FIG. 7). The method, then:
Control mice were treated with PBS. In these experiments, LLC cells were implanted into the s.c. dorsa of C57B1/6J mice, and systemically treated. Peptides (mP1, mP2, mP5, and mP6) were injected (s.c.) twice a day at a dose of 2.8 mg/kg/d, whereas endostatin and PBS were administered once a day at a dose of 20 mg/kg/d.
as §1
Animals with Lewis Lung carcinoma (600-800 mm^3 tumors) were euthanized, and the skin overlying the tumor was cleaned with Betadine and ethanol. Tumor tissue was excised under aseptic conditions. A suspension of tumor cells in 0.9% normal saline was made by passage of viable tumor tissue through a sieve and a series of sequentially smaller hypodermic needles of diameter 22- to 30-gauge. The final concentration was adjusted to 1×10^7 cells/ml, and the suspension was placed on ice. The injection of tumor cells was performed as described above.
as §2, §3

Data set [2] has as its system human microvascular endothelial cells (HMVECs). In words: VEGF-induced migration of HMVECs, modified Boyden chamber. The class given is cell-based. The protocol:
Endostatin peptides were tested for anti-endothelial cell migration activity. Inhibition of VEGF-induced migration of human microvascular endothelial cells (HMVECs) was determined using several doses of endostatin peptides (FIG. 5). Human peptides were used because the cells were of human origin and the migration response of the HMVECs was assayed using a modified Boyden chamber. VEGF (5 ng/ml) was used a chemotactic agent and cells were challenged with human endostatin (Entremed; EM-ES), human Fc-Endostatin (nFcES), human P1 (hP1), human P2 (hP2), human P6 (hP6), and human P1-H1/3A (hP1-H1/3A). Total migration per membrane was quantified from the capture images using Scion Image Software (National Institutes of Health) and the unpaired Student T test was used for statistical analysis. […] No significant differences in inhibition between these concentrations were observed. At higher and lower concentrations less or no inhibition was observed. At 500 ng/ml of hP1 no inhibition was observed. Thus, similar to full-length endostatin, there is a U-shaped response to hP1 inhibition of EC migration.
The motility response of HMVEC-d cells was assayed using a modified Boyden chamber. Cells were plated in T75-cm2 flasks at 0.5×10^6 cells per flask and allowed to grow for 48 h (˜70% confluent) prior to the migration assay. To facilitate cell adhesion, the upper membrane of a transwell ([…]; Costar) was coated with fibronectin ([…]; Becton Dickinson, Bedford, Mass.) for 1 h at 37° C. Coated membranes were rinsed with PBS and allowed to air dry immediately before use. Cells were detached by trypsinization, treated with trypsinization neutralization solution (Clonetics), and resuspended at a final concentration of 1×10^6 cells/ml in serum-free endothelial basal medium (EBM; Clonetics) containing 0.1% BSA. Cells (200,000 in 0.2 ml) were then treated with 0.2 ml of EBM/BSA containing endostatin or peptides at the indicated concentrations. Cells were incubated for 20 min. at 37° C. with occasional shaking. Cells (50,000 in 100 μl) were added to the upper chamber of the transwell. EBM or EBM supplemented with VEGF (5 ng/ml) was added to the lower chamber and cells were allowed to migrate toward the bottom chamber for 4 h in a humidified incubator containing 5% CO2. Transwell filters were rinsed once with PBS and fixed and stained using a Diff-Quik staining kit (Baxter) following the manufacturer's protocol. Non-migrated cells were removed from the upper chamber with a cotton swab. Stained filters were cut out of the chamber and mounted onto slides using Permount (Fisher). The number of migrated cells was measured using microscopy (three fields from each membrane were captured using a 40× objective), and images were captured with a CCD camera using SPOT software. Total migration per membrane was quantified from the captured images using Scion Image software (National Institutes of Health). All experiments were run in triplicate. The unpaired Student t-test was used for statistical analysis.

The test system of a further data set is Female SCID mice. The following applies: mouse, in vivo.
The subject of the next data set is C57B1/6J mice. In words: Corpus luteum formation in ovaries. It is filed as in vivo, mouse. The following applies: after 4 weeks of treatment, compared to control animals. An excerpt:
The corpus luteum (CL) is the remnant of the graafian follicle after ovulation consisting mainly of connective tissue, granulosa and theca interna cells. The presence of Corpora lutea in an ovary is indicative of recent ovulation. We therefore examined the ovaries of mP-1 and vehicle treated mice for CL formation. After 4 weeks of treatment of C57B1/6J mice with induced endometriosis with mP-1, ovaries were removed, fixed in formalin and paraffin embedded. Ovaries from twelve, randomly chosen mice (three mice of both groups from the first two experiments) were sectioned (4-6 μm), and four consecutive sections were put on one slide. Every other slide was then stained with hematoxylin and eosin (H/E). The highest number of Corpora lutea per ovary on each slide was recorded, all numbers added and the mean number calculated.

For data set [3], the system named is vessel density (CD31) of LLC tumors. In words: Vessel density (CD31 staining) of LLC tumor sections. It is filed as in vivo, mouse. Conditions: peptides 2.8 mg/kg/d s.c. twice a day. The protocol: To determine the effect on angiogenesis after mP1 treatment, LLC tumors treated with mP1, mP2, and endostatin at equimolar concentration were analyzed for vessel density (CD31). […] In each case, peptides were administered twice a day s.c. and LLC tumor sections from day 13 were formalin-fixed paraffin-embedded and then stained with CD31 (PECAM). FIG. 2C show the determination of vessel density and the Y axis is expressed as %CD31/high power field (hpf).
Tumors were fixed in 10% buffered Formalin overnight at 4° C. The next day, tumors were washed three times in PBS and paraffin-embedded. Sections (5 μm) were permeabilized with 40 μg/ml proteinase K (Roche Diagnostics Corp.) in 0.2 M Tris-HCl buffer (pH 7.6) for 25 minutes at 37° C. and washed with PBS. PECAM (1:250) was incubated at 4° C. overnight. Stainings were amplified using tyramide signal amplification direct and indirect kits (NEN Life Science Products Inc., Boston, Mass.). Sections were photographed at 400× magnification using a NIKON TE300 microscope. Vessel density (average of three fields) was determined by IPLab software. The unpaired Student t-test was used for statistical analysis.

No end group written: not given here.

Protocol for Female SCID mice: Female SCID mice were injected with human pancreatic tumor cells subcutaneously. When tumors reached a volume of approximately 100 mm^3 endostatin or placebo treatment was initiated and continued until the end of the study. After three days, females were mated.
Human BxPC-3 cells were grown in cells culture as described above. After washing with sterile PBS, cells were trypsinized and briefly re-suspended in RPMI 1640 medium containing 10% fetal calf serum (FCS) and 1% glutamine penicillin streptomycin (GPS) solution. After centrifuging, the cell concentration was adjusted to 50×10^6 cells/ml in additive-free RPMI 1640 medium and kept on ice. Female SCID mice were shaved on the dorsal side and the naked skin was cleaned with ethanol prior to injection. A suspension of 5×10^6 cells/ml in 100 μl was then injected subcutaneously into the dorsa of these mice at about one centimetre left of the midline.
Mice were weighed and tumors were measured every 7 days in two diameters using a dial-caliper. Tumor volumes were calculated using the formula a^2×b×0.52, while a being the shorter and b being the longer diameter. When tumors had reached a volume of approximately 100 mm^2 mice were divided into four groups.
During the first experiment, one group received endostatin (20 mg/kg; n=8) or vehicle (n=8) via subcutaneous osmotic pumps (Durect Corp., Cupertino, Calif.). Pumps were inserted via a small incision and placed into a subcutaneous pocket on the right lateral aspect of the animals' dorsa. The pumps were changed every week for a total of four weeks.
The other group received daily subcutaneous injections of endostatin (100 mg/kg, n=5) or vehicle (n=5) for the same period.
During a second study we repeated the experiment with endostatin in subcutaneous pumps. The other group in this series received the murine N-terminal fragment of endostatin (mP-1) at a dose of 2.5 mg/kg twice daily or PBS (n=5 each).
Three days after initiation of treatment female mice were added to a cage containing a male SCID mouse in a 1:1 ratio. All males had been housed separately three days prior to encountering the females and female bedding had been added to the male cages to enhance the males' libido.
For the following seven days every female was checked for a vaginal mucous plug as a sign of mating. These exams were performed during the early morning hours to optimize the results. Once a mucous plug had been noticed, mating was considered ‘successful’, and the female was not further examined in order to minimize iatrogenic stress.
Over the course of pregnancy the following parameters were assessed: ‘Mating Time’ describing the time between male encounter and the occurrence of a mucous plug; ‘Pregnancy Rate’, measured by ultrasound 15 days after the mucous plug was observed. The number of viable fetus was counted during this procedure; ‘Length of Pregnancy’, as measured from the time of successful mating to delivery; ‘Number of Total and Viable Litter’, counted on the day of birth; ‘Weight of Individual Pup’, by weighing the entire litter on the day of birth and calculating the mean weight.

For ATAQDFQPVLHLVALNTPLSGGMRGIR [mP1-H1/3A], the “arrest of the estrus cycle” value with female C57BL/6 mice is “Neither mP-1, not the other two peptides, mP-6 and mP-1-H led to an arrest of the estrus cycle”.

On to “GSEGPLKPGARIFSFDGKDVLRHPT (listed as Homo sapiens) [hP5]”, for which the “inhibited BxPC-3 (tumor inhibition)” value in data set [1] came out at 29%.

“GSQGQVQPGARIFSFDGRDVLRHPA (listed as Mus musculus) [mP5]”: the “inhibited LLC (tumor inhibition)” value in the data set on LLC is given as “No or insignificant activity”.

Take HPAWPQKSVWHGSDPSGRRLMESY [mP6]: in the data set on female C57BL/6 mice, the “arrest of the estrus cycle” value is “Neither mP-1, not the other two peptides, mP-6 and mP-1-H led to an arrest of the estrus cycle”.

As to “HPTWPQKSVWHGSDPNGRRLTESY (listed as Homo sapiens) [hP6]”, the “inhibition of EC migration” value in data set [2] (200 and 100 ng/ml, VEGF 5 ng/ml) was “only inhibited at doses of 100 and 200 ng/ml”; in data set [2] (concentrations lower than 100 ng/ml) it was “no inhibition”.

On to “HSHRDFQPVLHLVALNSPLSGGMRG (listed as Homo sapiens) [hP1]”, for which the “inhibition of EC migration” value in data set [2] (500 ng/ml, VEGF 5 ng/ml) is on record as “no inhibition”; in data set [2] (100, 62.5, and 25 ng/ml, VEGF 5 ng/ml), “best inhibition”. In addition, the “inhibited BxPC-3 (tumor inhibition)” value in data set [1] is reported as 39%.

Regarding “HTHQDFQPVLHLVAL (listed as Mus musculus) [mP1-15]”, the tumor volume result in the data set on LLC is reported as “inhibit tumor volume”.

With “HTHQDFQPVLHLVALNTPLS (listed as Mus musculus) [mP1-20]”, the tumor volume entry with LLC is given as “inhibit tumor volume”.

HTHQDFQPVLHLVALNTPLSGGMRGIR [mP1]: the “arrest of the estrus cycle” value with female C57BL/6 mice is “Neither mP-1, not the other two peptides, mP-6 and mP-1-H led to an arrest of the estrus cycle”. In the data set with Female SCID mice, the “effect on the offspring” value is “did not see any negative effect on the offspring”, the length of pregnancy is 20 days, the “litter size per delivery” value turned out to be 7.4±1.3 and the “mean weight of pups on the day of delivery” value is on record as 1.29 g. Moreover, the “pregnancy rate with live births” value with Female SCID mice is “All mice receiving mP-1 became pregnant”. Also, the “mean number of Corpora lutea in ovaries” value in the data set with C57B1/6J mice is on record as “did not reduce the mean number of Corpora lutea”.

On to “MRGIRGA DFQAFQQARA VGLSGTFR (MRGIRGADFQAFQQARAVGLSGTFR; listed as Mus musculus) [mP2]”, for which the LLC tumor formation result in the data set with LLC (higher concentration 14 mg/kg/d) is recorded as “could inhibit LLC tumor formation as well as mP1 at 2.8 mg/kg/d”. Moreover, the “inhibited LLC (tumor inhibition)” value with LLC is reported as “No or insignificant activity”. Further, the “reduction of vessel density (%CD31/hpf)” value in data set [3] was “no effect”.

Take “TFRAFLSSRLQDLYSIVRRADRAAV (listed as Homo sapiens) [hP3]”: in data set [1], the “inhibited BxPC-3 (tumor inhibition)” value was “failed to inhibit tumor growth”.
